This note sets out measurements from patent publication US10987359B2, “Oxadiazepinone derivatives and methods of treating hepatitis B infections” (priority 2016, dated 2021).

The EC50 is the concentration that produces a half-maximal response.

For one assay, the system named is HBV. The assay can be described thus: HBV replication inhibition assay (BDNA assay) in HepG2.2.15 cells. Type of assay: cell-based. To be noted: HBV replication assay (BDNA assay), HepG2.2.15 cells; read-out: DNA EC50. A digest of the protocol:
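HepG2.2.15 cells with stably integrated HBV were treated with serially diluted compounds at 0.5% DMSO for 6 days, with medium and compound refreshed at day 3. Encapsidated HBV DNA from DNase-treated supernatant was quantified by branched DNA assay. EC50 came from % inhibition versus DMSO, fitted non-linearly.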
Consider `C[C@@H]1Cc2nn3c(c2CN1C(=O)Nc1ccc(F)c(C(F)(F)F)c1)C(=O)N(C)OC(CO)C3` (stereo in doubt) [Compound 082_E2, (4R*,9R)—N-(4-fluoro-3-(trifluoromethyl)phenyl)-4-(hydroxymethyl)-2,9-dimethyl-1-oxo-1,4,5,8,9,11-hexahydropyrido[4′,3′:3,4]pyrazolo[5,1-d][1,2,5]oxadiazepine-10(2H)-carboxamide], for which the EC50 was in the range of 1 to 100 nM.

Take `C[C@@H]1Cc2nn3c(c2CN1C(=O)Nc1ccc(F)c(C#N)c1)C(=O)N(C)OC(CO)C3` (stereo in doubt) [Compound 084_E2, (4R*,9R)—N-(3-cyano-4-fluorophenyl)-4-(hydroxymethyl)-2,9-dimethyl-1-oxo-1,4,5,8,9,11-hexahydropyrido[4′,3′:3,4]pyrazolo [5,1-d][1,2,5]oxadiazepine-10(2H)-carboxamide]: the EC50 fell in the range of 1 to 100 nM.

`C[C@@H]1Cc2nn3c(c2CN1C(=O)Nc1ccc(F)c(C(F)(F)F)c1)C(=O)N(C)OC(CF)C3` (stereo in doubt) [Compound 085_E2, (4R*,9R)—N-(4-fluoro-3-(trifluoromethyl)phenyl)-4-(fluoromethyl)-2,9-dimethyl-1-oxo-1,4,5,8,9,11-hexahydropyrido[4′,3′:3,4]pyrazolo[5,1-d][1,2,5]oxadiazepine-10(2H)-carboxamide]: the EC50 is 1 to 100 nM.

As to `Cc1cc(NC(=O)N2Cc3c(nn4c3C(=O)N(C)OC(CF)C4)C[C@H]2C)ccc1F` (stereo in doubt) [Compound 086_E2, (4R*,9R)—N-(4-fluoro-3-methylphenyl)-4-(fluoromethyl)-2,9-dimethyl-1-oxo-1,4,5,8,9,11-hexahydropyrido[4′,3′:3,4]pyrazolo[5,1-d][1,2,5]oxadiazepine-10(2H)-carboxamide], the EC50 was 1 to 100 nM.

Still in this assay, the particulars now being: Hepatitis B virus, HepG2.2.15, HBV replication assay (BDNA assay), HepG2.2.15 cells; read-out: DNA EC50.
Take `CN1O[C@H](C[S@+](C)[O-])Cn2nc3c(c2C1=O)CN(C(=O)Nc1ccc(F)c(Cl)c1)CC3` (stereo in doubt) [Compound 049_E1, (S*)—N-(3-chloro-4-fluorophenyl)-2-methyl-4-(((S*)-methylsulfinyl)methyl)-1-oxo-1,4,5,8,9,11-hexahydropyrido[4′,3′:3,4]pyrazolo[5,1-d][1,2,5]oxadiazepine-10(2H)-carboxamide]: the half-maximal effective concentration (EC50) is 100 to 500 nM.

For the compound `CN1O[C@H](C[S@@+](C)[O-])Cn2nc3c(c2C1=O)CN(C(=O)Nc1ccc(F)c(Cl)c1)CC3` (stereo in doubt) [Compound 049_E2, (S*)—N-(3-chloro-4-fluorophenyl)-2-methyl-4-(((R*)-methylsulfinyl)methyl)-1-oxo-1,4,5,8,9,11-hexahydropyrido[4′,3′:3,4]pyrazolo[5,1-d][1,2,5]oxadiazepine-10(2H)-carboxamide], the concentration giving a half-maximal response (EC50) fell in the range of 1 to 100 nM.

In the case of `CN1O[C@@H](C[S@@+](C)[O-])Cn2nc3c(c2C1=O)CN(C(=O)Nc1ccc(F)c(Cl)c1)CC3` (stereo in doubt) [Compound 049_E3, (R*)—N-(3-chloro-4-fluorophenyl)-2-methyl-4-(((R*)-methylsulfinyl)methyl)-1-oxo-1,4,5,8,9,11-hexahydropyrido[4′,3′:3,4]pyrazolo[5,1-d][1,2,5]oxadiazepine-10(2H)-carboxamide], the concentration for a half-maximal effect (EC50) lay within 1 to 100 nM.

Regarding `CN1O[C@@H](C[S@+](C)[O-])Cn2nc3c(c2C1=O)CN(C(=O)Nc1ccc(F)c(Cl)c1)CC3` (stereo in doubt) [Compound 049_E4, (R*)—N-(3-chloro-4-fluorophenyl)-2-methyl-4-(((S*)-methylsulfinyl)methyl)-1-oxo-1,4,5,8,9,11-hexahydropyrido[4′,3′:3,4]pyrazolo[5,1-d][1,2,5]oxadiazepine-10(2H)-carboxamide], the EC50 was 100 to 500 nM.

Regarding `C[C@H]1Cc2nn3c(c2CN1C(=O)Nc1ccc(F)c(Cl)c1)C(=O)N(C)O[C@H](CO)C3` (stereo in doubt) [Compound 069_E1, (4S*,9S*)—N-(3-chloro-4-fluorophenyl)-4-(hydroxymethyl)-2,9-dimethyl-1-oxo-1,4,5,8,9,11-hexahydropyrido[4′,3′:3,4]pyrazolo[5,1-d][1,2,5]oxadiazepine-10(2H)-carboxamide], the concentration giving a half-maximal response (EC50) is 1 to 100 nM.

With `C[C@H]1Cc2nn3c(c2CN1C(=O)Nc1ccc(F)c(Cl)c1)C(=O)N(C)O[C@@H](CO)C3` (stereo in doubt) [Compound 069_E2, (4R*,9S*)—N-(3-chloro-4-fluorophenyl)-4-(hydroxymethyl)-2,9-dimethyl-1-oxo-1,4,5,8,9,11-hexahydropyrido[4′,3′:3,4]pyrazolo[5,1-d][1,2,5]oxadiazepine-10(2H)-carboxamide], the EC50 was 1 to 100 nM.

Regarding `C[C@@H]1Cc2nn3c(c2CN1C(=O)Nc1ccc(F)c(Cl)c1)C(=O)N(C)O[C@@H](CO)C3` (stereo in doubt) [Compound 069_E3, (4R*,9R*)—N-(3-chloro-4-fluorophenyl)-4-(hydroxymethyl)-2,9-dimethyl-1-oxo-1,4,5,8,9,11-hexahydropyrido[4′,3′:3,4]pyrazolo[5,1-d][1,2,5]oxadiazepine-10(2H)-carboxamide], the EC50 was in the range of 100 to 500 nM.

With `C[C@@H]1Cc2nn3c(c2CN1C(=O)Nc1ccc(F)c(Cl)c1)C(=O)N(C)O[C@H](CO)C3` (stereo in doubt) [Compound 069_E4, (4S*,9R*)—N-(3-chloro-4-fluorophenyl)-4-(hydroxymethyl)-2,9-dimethyl-1-oxo-1,4,5,8,9,11-hexahydropyrido[4′,3′:3,4]pyrazolo[5,1-d][1,2,5]oxadiazepine-10(2H)-carboxamide], the EC50 was 1 to 100 nM.

Turning to `C[C@@H]1Cc2nn3c(c2CN1C(=O)Nc1ccc(F)c(C(F)(F)F)c1)C(=O)N(C)OC(CO)C3` (stereo in doubt) [Compound 082_E1, (4S*,9R)—N-(4-fluoro-3-(trifluoromethyl)phenyl)-4-(hydroxymethyl)-2,9-dimethyl-1-oxo-1,4,5,8,9,11-hexahydropyrido[4′,3′:3,4]pyrazolo[5,1-d][1,2,5]oxadiazepine-10(2H)-carboxamide], the EC50 fell in the range of 1 to 100 nM.

In the case of `C[C@@H]1Cc2nn3c(c2CN1C(=O)Nc1ccc(F)c(C#N)c1)C(=O)N(C)OC(CO)C3` (stereo in doubt) [Compound 084_E1, (4S*,9R)—N-(3-cyano-4-fluorophenyl)-4-(hydroxymethyl)-2,9-dimethyl-1-oxo-1,4,5,8,9,11-hexahydropyrido[4′,3′:3,4]pyrazolo [5,1-d][1,2,5]oxadiazepine-10(2H)-carboxamide], the 50% effective concentration (EC50) was in the range of 1 to 100 nM.

In the case of `C[C@@H]1Cc2nn3c(c2CN1C(=O)Nc1ccc(F)c(C(F)(F)F)c1)C(=O)N(C)OC(CF)C3` (stereo in doubt) [Compound 085_E1, (4S*,9R)—N-(4-fluoro-3-(trifluoromethyl)phenyl)-4-(fluoromethyl)-2,9-dimethyl-1-oxo-1,4,5,8,9,11-hexahydropyrido[4′,3′:3,4]pyrazolo[5,1-d][1,2,5]oxadiazepine-10(2H)-carboxamide], the EC50 was 1 to 100 nM.

For the compound `Cc1cc(NC(=O)N2Cc3c(nn4c3C(=O)N(C)OC(CF)C4)C[C@H]2C)ccc1F` (stereo in doubt) [Compound 086_E1, (4S*,9R)—N-(4-fluoro-3-methylphenyl)-4-(fluoromethyl)-2,9-dimethyl-1-oxo-1,4,5,8,9,11-hexahydropyrido[4′,3′:3,4]pyrazolo[5,1-d][1,2,5]oxadiazepine-10(2H)-carboxamide], the EC50 lay within 1 to 100 nM.
